Measured values as given in publication PMC3510508, “Rbg1–Tma46 dimer structure reveals new functional domains and their role in polysome recruitment” (Nucleic Acids Research, 2012).
Each block holds one molecule with its values, some of them ahead of it.

Tests used:
[1] = molecular target: T1, Rbg1fl–Tma46_205–345 (Saccharomyces cerevisiae, UniProt P39729); assay: thermal shift assay (Sypro Orange); type: binding; conditions: 150 mM NaCl, 20 mM Tris pH 7.5, 2 mM DTT, ~0.05 mM protein
T1 construct: gene RBG1; 6His-tagged full-length Rbg1 (N-terminal tag) co-expressed in E. coli with Tma46 residues 205-345; heterodimer; with Translation machinery-associated protein 46
T1 sequence (P39729 1-369): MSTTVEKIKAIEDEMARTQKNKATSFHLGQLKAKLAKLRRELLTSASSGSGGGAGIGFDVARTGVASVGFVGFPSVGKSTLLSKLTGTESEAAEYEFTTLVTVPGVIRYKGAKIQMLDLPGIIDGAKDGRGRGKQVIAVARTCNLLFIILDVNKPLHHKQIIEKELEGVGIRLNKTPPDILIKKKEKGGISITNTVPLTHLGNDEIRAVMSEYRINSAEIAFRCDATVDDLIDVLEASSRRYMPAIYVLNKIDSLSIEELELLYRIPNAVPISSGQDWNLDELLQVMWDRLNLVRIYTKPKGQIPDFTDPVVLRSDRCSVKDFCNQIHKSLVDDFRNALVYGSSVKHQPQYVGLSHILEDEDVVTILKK
T1 sequence (Q12000 205-345 partner): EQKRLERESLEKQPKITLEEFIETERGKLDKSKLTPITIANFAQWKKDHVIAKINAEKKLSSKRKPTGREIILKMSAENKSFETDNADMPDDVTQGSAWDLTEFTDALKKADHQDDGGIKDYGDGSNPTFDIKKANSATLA

[2] = molecular target: T2, Drg1fl–Lerepo4_220–396 (Homo sapiens, UniProt Q9Y295); assay: malachite green phosphate release; type: biochemical; conditions: 100 mM KCl, 50 mM Tris pH 7.5, 5 mM MgCl2, 37°C, 1 h, 20 μM protein
T2 construct: gene DRG1; recombinant full-length Drg1 with C-terminal Lerepo4 fragment; with Zinc finger CCCH domain-containing protein 15
T2 sequence (Q9Y295 2-367): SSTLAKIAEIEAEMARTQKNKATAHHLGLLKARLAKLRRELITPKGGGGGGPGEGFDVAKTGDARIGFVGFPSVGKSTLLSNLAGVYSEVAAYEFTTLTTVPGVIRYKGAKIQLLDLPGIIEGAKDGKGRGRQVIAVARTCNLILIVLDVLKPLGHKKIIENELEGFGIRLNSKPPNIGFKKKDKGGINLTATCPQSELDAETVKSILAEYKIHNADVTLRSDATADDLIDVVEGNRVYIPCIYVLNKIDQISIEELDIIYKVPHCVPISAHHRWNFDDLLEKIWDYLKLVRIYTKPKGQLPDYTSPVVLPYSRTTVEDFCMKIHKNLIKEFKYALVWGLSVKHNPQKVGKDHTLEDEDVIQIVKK
T2 sequence (Q8WU90 220-396 partner): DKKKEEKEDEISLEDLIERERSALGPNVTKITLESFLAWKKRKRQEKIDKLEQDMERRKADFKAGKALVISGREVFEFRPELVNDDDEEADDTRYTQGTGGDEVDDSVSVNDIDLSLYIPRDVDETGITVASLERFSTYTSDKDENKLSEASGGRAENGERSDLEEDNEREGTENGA
Text: malachite green phosphate release on Drg1fl–Lerepo4_220–396

[3] = molecular target: T3, Rbg1fl–Tma46_205–345 (Saccharomyces cerevisiae, UniProt P39729); assay: malachite green phosphate release; type: biochemical; conditions: 100 mM KCl, 50 mM Tris pH 7.5, 5 mM MgCl2, 37°C, 1 h, 20 μM protein
T3 construct: gene RBG1; 6His-tagged full-length Rbg1 (N-terminal tag) co-expressed in E. coli with Tma46 residues 205-345; heterodimer; with Translation machinery-associated protein 46
T3 sequence (P39729 1-369): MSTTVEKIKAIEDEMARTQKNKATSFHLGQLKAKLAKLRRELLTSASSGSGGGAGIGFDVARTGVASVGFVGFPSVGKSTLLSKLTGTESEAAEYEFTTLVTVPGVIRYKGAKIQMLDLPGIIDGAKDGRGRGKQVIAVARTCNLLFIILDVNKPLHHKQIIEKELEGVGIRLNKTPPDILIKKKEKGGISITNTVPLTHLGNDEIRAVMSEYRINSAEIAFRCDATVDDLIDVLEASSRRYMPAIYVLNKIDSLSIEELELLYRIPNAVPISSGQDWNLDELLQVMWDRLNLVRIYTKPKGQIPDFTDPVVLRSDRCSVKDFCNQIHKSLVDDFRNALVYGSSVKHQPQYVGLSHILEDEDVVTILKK
T3 sequence (Q12000 205-345 I241A partner): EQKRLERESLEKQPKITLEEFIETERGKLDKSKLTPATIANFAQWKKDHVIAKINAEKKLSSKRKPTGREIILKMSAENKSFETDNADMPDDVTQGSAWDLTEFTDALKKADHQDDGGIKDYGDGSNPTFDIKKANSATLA
Text: (§1) malachite green phosphate release on Rbg1fl–Tma46_205–345

[4] = molecular target: T4, Rbg1fl–Tma46_205–345 (Saccharomyces cerevisiae, UniProt P39729); assay: malachite green phosphate release; type: biochemical; conditions: 100 mM KCl, 50 mM Tris pH 7.5, 5 mM MgCl2, 37°C, 1 h, 20 μM protein; remark: listed apart in the source
T4 construct: gene RBG1; 6His-tagged full-length Rbg1 (N-terminal tag) co-expressed in E. coli with Tma46 residues 205-345; heterodimer; with Translation machinery-associated protein 46
T4 sequence (P39729 1-369): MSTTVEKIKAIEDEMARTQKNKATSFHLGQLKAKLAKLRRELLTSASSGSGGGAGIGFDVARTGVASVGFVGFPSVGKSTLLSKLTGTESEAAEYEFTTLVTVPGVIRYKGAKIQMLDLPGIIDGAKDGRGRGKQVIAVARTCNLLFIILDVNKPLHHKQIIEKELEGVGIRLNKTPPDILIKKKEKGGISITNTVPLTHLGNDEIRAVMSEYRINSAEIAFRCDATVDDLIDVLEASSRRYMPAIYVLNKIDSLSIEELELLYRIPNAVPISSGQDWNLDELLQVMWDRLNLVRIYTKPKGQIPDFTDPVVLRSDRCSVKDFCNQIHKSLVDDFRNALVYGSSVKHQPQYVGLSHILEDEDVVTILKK
T4 sequence (Q12000 205-345 I241A/F246A partner): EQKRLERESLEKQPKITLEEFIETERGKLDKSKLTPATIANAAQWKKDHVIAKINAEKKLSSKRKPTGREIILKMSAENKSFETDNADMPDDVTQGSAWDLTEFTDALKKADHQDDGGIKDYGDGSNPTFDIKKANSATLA
Text: as §1

[5] = molecular target: T5, Rbg1fl–Tma46_205–345 (Saccharomyces cerevisiae, UniProt P39729); assay: malachite green phosphate release; type: biochemical; conditions: 100 mM KCl, 50 mM Tris pH 7.5, 5 mM MgCl2, 37°C, 1 h, 20 μM protein; remark: listed apart in the source
T5 construct: gene RBG1; 6His-tagged full-length Rbg1 (N-terminal tag) co-expressed in E. coli with Tma46 residues 205-345; heterodimer; with Translation machinery-associated protein 46
T5 sequence (P39729 1-369): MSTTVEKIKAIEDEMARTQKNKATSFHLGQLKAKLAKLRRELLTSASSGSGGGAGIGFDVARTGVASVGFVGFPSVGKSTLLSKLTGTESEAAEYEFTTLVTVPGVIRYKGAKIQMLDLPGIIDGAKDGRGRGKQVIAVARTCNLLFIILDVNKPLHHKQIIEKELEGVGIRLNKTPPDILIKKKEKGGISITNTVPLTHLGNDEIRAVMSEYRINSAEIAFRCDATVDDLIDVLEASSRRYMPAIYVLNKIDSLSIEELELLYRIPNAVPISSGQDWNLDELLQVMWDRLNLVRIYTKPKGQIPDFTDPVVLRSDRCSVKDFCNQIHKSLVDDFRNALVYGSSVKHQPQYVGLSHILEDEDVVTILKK
T5 sequence (Q12000 205-345 W249A/K250E partner): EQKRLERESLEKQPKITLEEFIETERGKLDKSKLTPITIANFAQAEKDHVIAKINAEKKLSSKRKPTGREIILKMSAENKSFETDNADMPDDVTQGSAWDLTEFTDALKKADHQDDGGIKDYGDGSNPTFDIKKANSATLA
Text: as §1

[6] = molecular target: human Drg1 full length (human) (UniProt Q9Y295)
[7] = molecular target: T6, 6His-tagged full-length Rbg1 (yeast) (UniProt P39729)
T6 sequence: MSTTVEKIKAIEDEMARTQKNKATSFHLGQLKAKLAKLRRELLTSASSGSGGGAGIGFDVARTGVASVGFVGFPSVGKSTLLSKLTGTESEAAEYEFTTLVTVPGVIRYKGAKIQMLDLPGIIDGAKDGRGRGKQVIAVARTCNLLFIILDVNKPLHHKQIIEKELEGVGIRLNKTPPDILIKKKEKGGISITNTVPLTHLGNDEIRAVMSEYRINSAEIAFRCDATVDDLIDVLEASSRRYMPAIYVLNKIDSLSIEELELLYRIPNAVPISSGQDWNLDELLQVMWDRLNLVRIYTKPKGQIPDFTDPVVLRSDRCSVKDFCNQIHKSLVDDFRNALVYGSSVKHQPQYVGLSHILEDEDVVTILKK

Molecule: Nc1nc2c(ncn2[C@@H]2O[C@H](COP(=O)(O)OP(=O)(O)OP(O)(O)=S)[C@@H](O)[C@H]2O)c(=O)[nH]1 [GTPγS]
increase in melting temperature ([1]; 0.5 mM GTPγS in methods (0.2 mM also stated in Figure 4 legend)): increased melting temperature in the presence of the GDP, GTP or non-hydrolysable GTPγS

Molecule: Nc1nc2c(ncn2[C@@H]2O[C@H](COP(=O)(O)OP(=O)(O)O)[C@@H](O)[C@H]2O)c(=O)[nH]1 [GDP]
increase in melting temperature ([1]; 0.2 mM GDP): increased melting temperature in the presence of the GDP, GTP or non-hydrolysable GTPγS

Molecule: Nc1nc2c(ncn2[C@@H]2O[C@H](COP(=O)(O)OP(=O)(O)OP(=O)(O)O)[C@@H](O)[C@H]2O)c(=O)[nH]1 [GTP]
Km [2]: 319 ± 35 µM
increase in melting temperature ([1]; 0.2 mM GTP): increased melting temperature in the presence of the GDP, GTP or non-hydrolysable GTPγS
Km [3]: 186 ± 34.5 µM
Km [4]: 429 ± 94.7 µM
Km [5]: 426 ± 52.6 µM

Results, then the molecule that gave them:

GTP hydrolysis (Malachite green), Vmax of the complex; free Drg1 showed significantly reduced activity (nmol min^−1 mg^−1) [6]: 0.115
GTP hydrolysis (Malachite green), kcat of the complex [6]: 0.000123 s⁻¹
Molecule: Lerepo4_(220–396) (from UniProt Q8WU90 220-396) (domain or fragment)

GTP hydrolysis (Malachite green), Vmax (nmol min^−1 mg^−1) [7]: 0.0406
GTP hydrolysis (Malachite green), kcat [7]: 3.83e-05 s⁻¹
B1: Tma46_(205–345 I241A) (domain or fragment)
chain: EQKRLERESLEKQPKITLEEFIETERGKLDKSKLTPATIANFAQWKKDHVIAKINAEKKLSSKRKPTGREIILKMSAENKSFETDNADMPDDVTQGSAWDLTEFTDALKKADHQDDGGIKDYGDGSNPTFDIKKANSATLA
